Laboratory results published in ChEMBL document CHEMBL1153072, “Synthesis and structure-activity relationship of dicationic diaryl ethers as novel potent anti-MRSA and anti-VRE agents” (2009).
Converted amounts (≈) assume the structure as drawn.

How the values were obtained:
Type in all cases: functional
[1] = test system: Staphylococcus epidermidis; experiment: Antibacterial activity against Staphylococcus epidermidis ATCC 12228
[2] = test system: Streptococcus pneumoniae; experiment: Antibacterial activity against Streptococcus pneumoniae ATCC 6301
[3] = test system: Enterococcus faecium; experiment: Antibacterial activity against vancomycin-resistant Enterococcus faecium ATCC 700221
[4] = test system: Candida albicans; experiment: Antifungal activity against Candida albicans ATCC 90028
[5] = test system: Bacteroides fragilis; experiment: Antibacterial activity against […] ATCC 23745
[6] = test system: Clostridium perfringens; experiment: Antibacterial activity against Clostridium perfringens ATCC 10388
[7] = test system: Staphylococcus aureus; experiment: Antibacterial activity against methicillin-resistant Staphylococcus aureus ATCC 33591
[8] = test system: Staphylococcus aureus; experiment: Antibacterial activity against multidrug resistant Staphylococcus aureus BAA-39
[9] = test system: Bacillus subtilis; experiment: Antibacterial activity against Bacillus subtilis ATCC 23857
[10] = test system: Enterococcus faecalis; experiment: Antibacterial activity against vancomycin-resistant Enterococcus faecalis ATCC 51575
[11] = test system: Bacillus cereus; experiment: Antibacterial activity against Bacillus cereus ATCC 11778
[12] = test system: Staphylococcus epidermidis; experiment: Antibacterial activity against methicillin-resistant Staphylococcus epidermidis ATCC 51625
[13] = test system: Staphylococcus aureus; experiment: Antibacterial activity against Staphylococcus aureus ATCC 29213

SMILES | MIC [1] [µg/mL] | MIC [2] [µg/mL] | MIC [3] [µg/mL] | MIC [4] [µg/mL] | MIC [5] [µg/mL] | MIC [6] [µg/mL] | MIC [7] [µg/mL] | MIC [8] [µg/mL] | MIC [9] [µg/mL] | MIC [10] [µg/mL] | MIC [11] [µg/mL] | MIC [12] [µg/mL] | MIC [13] [µg/mL]
N=C(c1ccc2[nH]c(-c3ccc(Oc4ccc(-c5nc6cc(C(=N)N7CCCC7)ccc6[nH]5)cc4)cc3)nc2c1)N1CCCC1 | 0.12 (≈ 0.202 µM) | < 0.06 | < 0.06 | 4 (≈ 6.73 µM) | 2 (≈ 3.36 µM) | 0.5 (≈ 0.841 µM) | 0.25 (≈ 0.42 µM) | 0.5 (≈ 0.841 µM) | < 0.06 | 0.25 (≈ 0.42 µM) | 0.12 (≈ 0.202 µM) | 0.12 (≈ 0.202 µM) | 0.25 (≈ 0.42 µM)
N=C(c1ccc2[nH]c(-c3ccc(Oc4ccc(-c5nc6cc(C(=N)N7CCOCC7)ccc6[nH]5)cc4)cc3)nc2c1)N1CCOCC1 | 0.25 (≈ 0.399 µM) | 0.5 (≈ 0.798 µM) | 0.5 (≈ 0.798 µM) | 16 (≈ 25.5 µM) | 8 (≈ 12.8 µM) | 2 (≈ 3.19 µM) | 0.5 (≈ 0.798 µM) | 0.5 (≈ 0.798 µM) | 0.5 (≈ 0.798 µM) | 0.5 (≈ 0.798 µM) | 0.12 (≈ 0.191 µM) | 0.5 (≈ 0.798 µM) | 1 (≈ 1.6 µM)
COc1cc(Oc2ccc(-c3nc4cc(C(=N)NC(C)C)ccc4[nH]3)cc2)ccc1-c1nc2cc(C(=N)NC(C)C)ccc2[nH]1 | ≤ 0.06 | ≤ 0.06 | ≤ 0.06 | 2 (≈ 3.33 µM) | > 32 | 0.25 (≈ 0.416 µM) | 0.25 (≈ 0.416 µM) | 0.5 (≈ 0.832 µM) | ≤ 0.06 | 0.5 (≈ 0.832 µM) | 0.12 (≈ 0.2 µM) | 0.12 (≈ 0.2 µM) | 0.5 (≈ 0.832 µM)
O=C(O)c1cn(C2CC2)c2cc(N3CCNCC3)c(F)cc2c1=O [CIPROFLOXACIN] | ≤ 0.12 |  | > 64 |  | 0.5 (≈ 1.51 µM) |  | ≤ 0.12 | 8 (≈ 24.1 µM) | ≤ 0.12 | 0.5 (≈ 1.51 µM) | ≤ 0.12 | ≤ 0.12 | 0.5 (≈ 1.51 µM)
N=C(NC1CCCC1)c1ccc2[nH]c(-c3ccc(Oc4ccc(-c5nc6cc(C(=N)NC7CCCC7)ccc6[nH]5)cc4)cc3)nc2c1 | 0.12 (≈ 0.193 µM) | < 0.06 | < 0.06 | 2 (≈ 3.21 µM) | 32 (≈ 51.4 µM) | 0.25 (≈ 0.401 µM) | 0.5 (≈ 0.803 µM) | 0.5 (≈ 0.803 µM) | < 0.06 | 0.25 (≈ 0.401 µM) | < 0.06 | 0.12 (≈ 0.193 µM) | 0.25 (≈ 0.401 µM)
CC1CCN(C(=N)c2ccc3[nH]c(-c4ccc(Oc5ccc(-c6nc7cc(C(=N)N8CCC(C)CC8)ccc7[nH]6)cc5)cc4)nc3c2)CC1 | 0.12 (≈ 0.184 µM) | 0.12 (≈ 0.184 µM) | 0.25 (≈ 0.384 µM) | 4 (≈ 6.15 µM) | 4 (≈ 6.15 µM) | 1 (≈ 1.54 µM) | 0.25 (≈ 0.384 µM) | 0.25 (≈ 0.384 µM) | 0.12 (≈ 0.184 µM) | 0.5 (≈ 0.768 µM) | < 0.06 | 0.12 (≈ 0.184 µM) | 0.25 (≈ 0.384 µM)
N=C(c1ccc2[nH]c(-c3ccc(Oc4ccc(-c5nc6cc(C(=N)N7CCC(N8CCCC8)CC7)ccc6[nH]5)cc4)cc3)nc2c1)N1CCC(N2CCCC2)CC1 | 1 (≈ 1.31 µM) | > 32 | 2 (≈ 2.63 µM) | 16 (≈ 21 µM) | > 32 | > 32 | 4 (≈ 5.26 µM) | 4 (≈ 5.26 µM) | 4 (≈ 5.26 µM) | 8 (≈ 10.5 µM) | 1 (≈ 1.31 µM) | 1 (≈ 1.31 µM) | 8 (≈ 10.5 µM)
CC1(C)S[C@@H]2[C@H](NC(=O)Cc3ccccc3)C(=O)N2[C@H]1C(=O)O [PENICILLIN G] | 32 (≈ 95.7 µM) | < 0.06 | > 32 | > 32 | 4 (≈ 12 µM) | < 0.12 | > 32 | > 32 | < 0.06 | 4 (≈ 12 µM) | > 4 | 32 (≈ 95.7 µM) | 1 (≈ 2.99 µM)
COc1cc(Oc2ccc(-c3nc4cc(C(=N)NC(C)C)ccc4[nH]3)c(Cl)c2)ccc1-c1nc2cc(C(=N)NC(C)C)ccc2[nH]1 | ≤ 0.06 | ≤ 0.06 | ≤ 0.06 | 4 (≈ 6.3 µM) | > 32 | 0.25 (≈ 0.394 µM) | 0.25 (≈ 0.394 µM) | 0.5 (≈ 0.787 µM) | ≤ 0.06 | 0.25 (≈ 0.394 µM) | 0.12 (≈ 0.189 µM) | ≤ 0.06 | 0.25 (≈ 0.394 µM)
CC(C)NC(=N)c1ccc2[nH]c(-c3ccc(Oc4ccc(-c5nc6cc(C(=N)NC(C)C)ccc6[nH]5)cc4)cc3)nc2c1 | < 0.06 | < 0.06 | < 0.06 | 1 (≈ 1.75 µM) | 2 (≈ 3.5 µM) | 0.5 (≈ 0.876 µM) | 0.12 (≈ 0.21 µM) | 0.5 (≈ 0.876 µM) | < 0.06 | 0.12 (≈ 0.21 µM) | < 0.06 | < 0.06 | 0.25 (≈ 0.438 µM)
CCN1CCN(C(=N)c2ccc3[nH]c(-c4ccc(Oc5ccc(-c6nc7cc(C(=N)N8CCN(CC)CC8)ccc7[nH]6)cc5)cc4)nc3c2)CC1 | 0.5 (≈ 0.734 µM) | 0.5 (≈ 0.734 µM) | 1 (≈ 1.47 µM) | 32 (≈ 47 µM) | 16 (≈ 23.5 µM) | 16 (≈ 23.5 µM) | 1 (≈ 1.47 µM) | 1 (≈ 1.47 µM) | 0.5 (≈ 0.734 µM) | 1 (≈ 1.47 µM) | 0.5 (≈ 0.734 µM) | 0.5 (≈ 0.734 µM) | 1 (≈ 1.47 µM)
CCC(C)NC(=N)c1ccc2[nH]c(-c3ccc(Oc4ccc(-c5nc6cc(C(=N)NC(C)CC)ccc6[nH]5)cc4)cc3)nc2c1 (stereo not given) | 0.12 (≈ 0.2 µM) | < 0.06 | < 0.06 | 2 (≈ 3.34 µM) | 16 (≈ 26.7 µM) | 0.5 (≈ 0.835 µM) | 0.25 (≈ 0.418 µM) | 0.5 (≈ 0.835 µM) | < 0.06 | 0.25 (≈ 0.418 µM) | < 0.06 | 0.12 (≈ 0.2 µM) | 0.5 (≈ 0.835 µM)
N=C(c1ccc2[nH]c(-c3ccc(Oc4ccc(-c5nc6cc(C(=N)N7CCCCCC7)ccc6[nH]5)cc4)cc3)nc2c1)N1CCCCCC1 | 0.12 (≈ 0.184 µM) | 0.12 (≈ 0.184 µM) | 0.5 (≈ 0.768 µM) | 8 (≈ 12.3 µM) | 4 (≈ 6.15 µM) | 2 (≈ 3.07 µM) | 0.25 (≈ 0.384 µM) | 0.25 (≈ 0.384 µM) | 0.25 (≈ 0.384 µM) | 0.5 (≈ 0.768 µM) | 0.5 (≈ 0.768 µM) | 0.25 (≈ 0.384 µM) | 0.25 (≈ 0.384 µM)
CC1CC(C)CN(C(=N)c2ccc3[nH]c(-c4ccc(Oc5ccc(-c6nc7cc(C(=N)N8CC(C)CC(C)C8)ccc7[nH]6)cc5)cc4)nc3c2)C1 (stereo not given) | 0.25 (≈ 0.368 µM) | 0.5 (≈ 0.737 µM) | 0.5 (≈ 0.737 µM) | 8 (≈ 11.8 µM) | 4 (≈ 5.89 µM) | 2 (≈ 2.95 µM) | 0.25 (≈ 0.368 µM) | 0.5 (≈ 0.737 µM) | 0.25 (≈ 0.368 µM) | 1 (≈ 1.47 µM) | 1 (≈ 1.47 µM) | 0.5 (≈ 0.737 µM) | 0.5 (≈ 0.737 µM)
CN[C@H](CC(C)C)C(=O)N[C@H]1C(=O)N[C@@H](CC(N)=O)C(=O)N[C@H]2C(=O)N[C@H]3C(=O)N[C@H](C(=O)N[C@H](C(=O)O)c4cc(O)cc(O)c4-c4cc3ccc4O)[C@H](O)c3ccc(c(Cl)c3)Oc3cc2cc(c3O[C@@H]2O[C@H](CO)[C@@H](O)[C@H](O)[C@H]2O[C@H]2C[C@](C)(N)[C@H](O)[C@H](C)O2)Oc2ccc(cc2Cl)[C@H]1O [VANCOMYCIN] |  | 1 (≈ 0.69 µM) | > 64 | > 32 | 4 (≈ 2.76 µM) | 0.12 (≈ 0.0828 µM) |  |  | 0.12 (≈ 0.0828 µM) | > 64 | ≤ 1 |  | 
CC(C)NC(=N)c1ccc2[nH]c(-c3ccc(Oc4ccc(-c5nc6cc(C(=N)NC(C)C)ccc6[nH]5)c(Cl)c4)cc3)nc2c1 | ≤ 0.06 | ≤ 0.06 | ≤ 0.06 | 2 (≈ 3.3 µM) | 4 (≈ 6.61 µM) | 0.25 (≈ 0.413 µM) | 0.12 (≈ 0.198 µM) | 0.5 (≈ 0.826 µM) | ≤ 0.06 | 0.12 (≈ 0.198 µM) | 0.12 (≈ 0.198 µM) | ≤ 0.06 | 0.25 (≈ 0.413 µM)
CC(C)NC(=N)c1ccc2[nH]c(-c3ccc(Oc4ccc(-c5nc6cc(C(=N)NC(C)C)ccc6[nH]5)cc4Cl)cc3)nc2c1 | ≤ 0.06 | ≤ 0.06 | ≤ 0.06 | 1 (≈ 1.65 µM) | 16 (≈ 26.4 µM) | 0.5 (≈ 0.826 µM) | 0.25 (≈ 0.413 µM) | 0.25 (≈ 0.413 µM) | 0.12 (≈ 0.198 µM) | 0.25 (≈ 0.413 µM) | 0.12 (≈ 0.198 µM) | ≤ 0.06 | 0.25 (≈ 0.413 µM)
N=C(c1ccc2[nH]c(-c3ccc(Oc4ccc(-c5nc6cc(C(=N)N7CCCCC7)ccc6[nH]5)cc4)cc3)nc2c1)N1CCCCC1 | < 0.06 | < 0.06 | 0.12 (≈ 0.193 µM) | 8 (≈ 12.8 µM) | 2 (≈ 3.21 µM) | 0.25 (≈ 0.401 µM) | 0.12 (≈ 0.193 µM) | 0.5 (≈ 0.803 µM) | < 0.06 | 0.25 (≈ 0.401 µM) | 0.25 (≈ 0.401 µM) | 0.12 (≈ 0.193 µM) | 0.25 (≈ 0.401 µM)
CC(C)NC(=N)c1ccc2[nH]c(-c3ccc(Oc4ccc(-c5nc6cc(C(=N)NC(C)C)ccc6[nH]5)c(C(F)(F)F)c4)cc3)nc2c1 | ≤ 0.06 | ≤ 0.06 | ≤ 0.06 | 4 (≈ 6.26 µM) | 8 (≈ 12.5 µM) | 0.25 (≈ 0.391 µM) | 0.25 (≈ 0.391 µM) | 0.5 (≈ 0.783 µM) | ≤ 0.06 | 0.12 (≈ 0.188 µM) | 0.12 (≈ 0.188 µM) | 0.12 (≈ 0.188 µM) | 0.5 (≈ 0.783 µM)
CCC(CC)NC(=N)c1ccc2[nH]c(-c3ccc(Oc4ccc(-c5nc6cc(C(=N)NC(CC)CC)ccc6[nH]5)cc4)cc3)nc2c1 | 0.12 (≈ 0.191 µM) | < 0.06 | < 0.06 | 4 (≈ 6.38 µM) | 4 (≈ 6.38 µM) | 0.5 (≈ 0.798 µM) | 0.25 (≈ 0.399 µM) | 0.5 (≈ 0.798 µM) | 0.12 (≈ 0.191 µM) | 0.5 (≈ 0.798 µM) | 0.5 (≈ 0.798 µM) | 0.25 (≈ 0.399 µM) | 0.25 (≈ 0.399 µM)
CC(C)NC(=N)c1ccc2[nH]c(-c3ccc(Oc4ccc(-c5nc6cc(C(=N)NC(C)C)ccc6[nH]5)nc4)cc3)nc2c1 | 0.12 (≈ 0.21 µM) | ≤ 0.06 | ≤ 0.06 | 4 (≈ 7 µM) | 32 (≈ 56 µM) | 0.5 (≈ 0.875 µM) | 0.5 (≈ 0.875 µM) | 0.5 (≈ 0.875 µM) | ≤ 0.06 | 0.12 (≈ 0.21 µM) | 0.12 (≈ 0.21 µM) | 0.12 (≈ 0.21 µM) | 0.5 (≈ 0.875 µM)
